According to ChEMBL document CHEMBL4828734, “Discovery of High-Affinity Inhibitors of the BPTF Bromodomain” (J Med Chem, 2021):
One block for each compound: values may come before it. Calls of active or inactive are those of the source. No cut-off for these calls is given here.

What was measured:
[1] = target: T1, Nucleosome-remodeling factor subunit BPTF (Homo sapiens, UniProt Q12830); test: Inhibition of N-terminal GST-tagged human BPTF (2914 to 3037 residues) expressed in Escherichia coli BL21-CodonPlus (DE3) cells by HTRF assay
MV4-11 [2] = test: Downregulation of c-Myc protein expression in human MV4-11 cells after 24 hrs by Western blot analysis; assay type: functional, cell-based; conditions: dose 0.6-50 µM
MV4-11 [3] = test: Antiproliferative activity against human MC4-11 cells assessed as reduction in cell viability after 5 days by Celltiter-Glo assay; conditions: MV4-11, 120 h
[4] = target: Bromodomain-containing protein 2 (Homo sapiens) (UniProt P25440); test: Inhibition of BRD2-BD1 (unknown origin) at 1 uM using acetylated H4 as substrate incubated for 1 hr by AlphaScreen assay
[5] = target: T1, Nucleosome-remodeling factor subunit BPTF; test: Inhibition of BPTF in human MV4-11 cells assessed as reduction in CDK6 mRNA level incubated for 24 hrs by RT-PCR analysis; assay type: cell-based; conditions: dose 2.5-20 µM
[6] = target: Bromodomain-containing protein 4 (Homo sapiens) (UniProt O60885); test: Binding affinity to BRD4-BD1 (unknown origin) assessed as change in melting temperature at 50 uM by thermal shift assay
HUVEC = test: Cytotoxicity against HUVEC assessed as reduction in cell viability at 100 uM after 3 days by Celltiter-Glo assay; assay type: cell-based; conditions: human, 72 h, time 3 day
MV4-11 [7] = test: Induction of cell cycle arrest in human MV4-11 cells assessed as accumulation at S phase after 24 hrs by propidium iodide staining based flow cytometry analysis; assay type: functional
[8] = target: T1, Nucleosome-remodeling factor subunit BPTF; test: Binding affinity to N-terminal GST-tagged human BPTF (2914 to 3037 residues) expressed in Escherichia coli BL21-CodonPlus (DE3) cells assessed as change in melting temperature at 100 uM by thermal shift assay
[9] = target: T1, Nucleosome-remodeling factor subunit BPTF; test: Binding affinity to N-terminal GST-tagged human BPTF (2914 to 3037 residues) expressed in Escherichia coli BL21-CodonPlus (DE3) cells by SPR assay
[10] = target: CREB-binding protein (Homo sapiens) (UniProt Q92793); test: Binding affinity to CBP-BRD (unknown origin) assessed as change in melting temperature at 50 uM by thermal shift assay
[11] = target: T1, Nucleosome-remodeling factor subunit BPTF; test: Displacement of Halo-tagged histone H4 from NanoLuc-tagged BPTF (unknown origin) expressed in HEK293 cells by NanoBRET assay; assay type: cell-based
[12] = target: CREB-binding protein (Homo sapiens) (UniProt Q92793); test: Inhibition of CBP-BRD (unknown origin) at 1 uM using acetylated H4 as substrate incubated for 1 hr by AlphaScreen assay
[13] = target: Bromodomain-containing protein 2 (Homo sapiens) (UniProt P25440); test: Inhibition of BRD2-BD2 (unknown origin) at 1 uM using acetylated H4 as substrate incubated for 1 hr by AlphaScreen assay
[14] = target: SWI/SNF-related matrix-associated actin-dependent regulator of chromatin subfamily A member 2 (Homo sapiens) (UniProt P51531); test: Inhibition of SMARCA2-BRD (unknown origin) at 1 uM using acetylated H4 as substrate incubated for 1 hr by AlphaScreen assay
[15] = target: T1, Nucleosome-remodeling factor subunit BPTF; test: Inhibition of BPTF in human MV4-11 cells assessed as reduction in c-Myc mRNA level incubated for 24 hrs by RT-PCR analysis; assay type: cell-based; conditions: dose 2.5-20 µM
[16] = target: T1, Nucleosome-remodeling factor subunit BPTF; test: Inhibition of BPTF in human MV4-11 cells assessed as reduction in bcl2 mRNA level incubated for 24 hrs by RT-PCR analysis; assay type: cell-based; conditions: dose 2.5-20 µM
[17] = target: Bromodomain-containing protein 4 (Homo sapiens) (UniProt O60885); test: Binding affinity to BRD4-BD2 (unknown origin) assessed as change in melting temperature at 50 uM by thermal shift assay
MRC5 = test: Cytotoxicity against human MRC5 assessed as reduction in cell viability at 100 uM after 3 days by Celltiter-Glo assay; assay type: cell-based; conditions: mrc5, 72 h, time 3 day
MV4-11 [18] = test: Induction of cell cycle arrest in human MV4-11 cells assessed as accumulation at G1 phase after 24 hrs by propidium iodide staining based flow cytometry analysis; assay type: functional; conditions: dose 5-20 µM
[19] = target: Bromodomain-containing protein 4 (Homo sapiens) (UniProt O60885); test: Inhibition of BRD4-BD2 (unknown origin) at 1 uM using acetylated H4 as substrate incubated for 1 hr by AlphaScreen assay
[20] = target: T1, Nucleosome-remodeling factor subunit BPTF; test: Binding affinity to N-terminal GST-tagged human BPTF (2914 to 3037 residues) expressed in Escherichia coli BL21-CodonPlus (DE3) cells at 200 uM by STD NMR spectroscopy
[21] = target: Histone acetyltransferase p300 (Homo sapiens) (UniProt Q09472); test: Inhibition of p300-BRD (unknown origin) at 1 uM using acetylated H4 as substrate incubated for 1 hr by AlphaScreen assay
[22] = target: Bromodomain-containing protein 4 (Homo sapiens) (UniProt O60885); test: Inhibition of BRD4-BD1 (unknown origin) at 1 uM using acetylated H4 as substrate incubated for 1 hr by AlphaScreen assay
MV4-11 [23] = test: Induction of apoptosis in human MV4-11 cells at 5 to 20 uM after 24 hrs by Annexin V-FITC and propidium iodide staining based flow cytometry analysis; assay type: functional, cell-based; conditions: dose 5-20 µM
[24] = target: T1, Nucleosome-remodeling factor subunit BPTF; test: Inhibition of N-terminal GST-tagged human BPTF (2914 to 3037 residues) expressed in Escherichia coli BL21-CodonPlus (DE3) cells at 1 uM incubated for 1 hr by AlphaScreen assay relative to control
[25] = target: SWI/SNF-related matrix-associated actin-dependent regulator of chromatin subfamily A member 2 (Homo sapiens) (UniProt P51531); test: Binding affinity to SMARCA2-BRD (unknown origin) assessed as change in melting temperature at 50 uM by thermal shift assay
[26] = target: T1, Nucleosome-remodeling factor subunit BPTF; test: Binding affinity to N-terminal GST-tagged human BPTF (2914 to 3037 residues) expressed in Escherichia coli BL21-CodonPlus (DE3) cells at 200 uM by CPMG NMR spectroscopy
[27] = target: Bromodomain-containing protein 2 (Homo sapiens) (UniProt P25440); test: Binding affinity to BRD2-BD1 (unknown origin) assessed as change in melting temperature at 50 uM by thermal shift assay
[28] = target: Bromodomain-containing protein 2 (Homo sapiens) (UniProt P25440); test: Binding affinity to BRD2-BD2 (unknown origin) assessed as change in melting temperature at 50 uM by thermal shift assay
[29] = target: Histone acetyltransferase p300 (Homo sapiens) (UniProt Q09472); test: Binding affinity to p300-BRD (unknown origin) assessed as change in melting temperature at 50 uM by thermal shift assay
[30] = target: T1, Nucleosome-remodeling factor subunit BPTF; test: Binding affinity to N-terminal GST-tagged human BPTF (2914 to 3037 residues) expressed in Escherichia coli BL21-CodonPlus (DE3) cells assessed as change in melting temperature at 50 uM by thermal shift assay
[31] = target: T1, Nucleosome-remodeling factor subunit BPTF; test: Binding affinity to N-terminal GST-tagged human BPTF (2914 to 3037 residues) expressed in Escherichia coli BL21-CodonPlus (DE3) cells assessed as change in melting temperature at 25 uM by thermal shift assay
[32] = target: T1, Nucleosome-remodeling factor subunit BPTF; test: Binding affinity to BPTF (unknown origin)
[33] = target: T1, Nucleosome-remodeling factor subunit BPTF; test: Binding affinity to N-terminal GST-tagged human BPTF (2914 to 3037 residues) expressed in Escherichia coli BL21-CodonPlus (DE3) cells assessed as change in melting temperature at 12.5 uM by thermal shift assay
[34] = target: T1, Nucleosome-remodeling factor subunit BPTF
Description: Binding affinity to BPTF (unknown origin) expressed in Escherichia coli BL21 (DE3) cells by SPR analysis

Sequence of Bromodomain-containing protein 2 (Homo sapiens) (P25440 whole entry, looked up): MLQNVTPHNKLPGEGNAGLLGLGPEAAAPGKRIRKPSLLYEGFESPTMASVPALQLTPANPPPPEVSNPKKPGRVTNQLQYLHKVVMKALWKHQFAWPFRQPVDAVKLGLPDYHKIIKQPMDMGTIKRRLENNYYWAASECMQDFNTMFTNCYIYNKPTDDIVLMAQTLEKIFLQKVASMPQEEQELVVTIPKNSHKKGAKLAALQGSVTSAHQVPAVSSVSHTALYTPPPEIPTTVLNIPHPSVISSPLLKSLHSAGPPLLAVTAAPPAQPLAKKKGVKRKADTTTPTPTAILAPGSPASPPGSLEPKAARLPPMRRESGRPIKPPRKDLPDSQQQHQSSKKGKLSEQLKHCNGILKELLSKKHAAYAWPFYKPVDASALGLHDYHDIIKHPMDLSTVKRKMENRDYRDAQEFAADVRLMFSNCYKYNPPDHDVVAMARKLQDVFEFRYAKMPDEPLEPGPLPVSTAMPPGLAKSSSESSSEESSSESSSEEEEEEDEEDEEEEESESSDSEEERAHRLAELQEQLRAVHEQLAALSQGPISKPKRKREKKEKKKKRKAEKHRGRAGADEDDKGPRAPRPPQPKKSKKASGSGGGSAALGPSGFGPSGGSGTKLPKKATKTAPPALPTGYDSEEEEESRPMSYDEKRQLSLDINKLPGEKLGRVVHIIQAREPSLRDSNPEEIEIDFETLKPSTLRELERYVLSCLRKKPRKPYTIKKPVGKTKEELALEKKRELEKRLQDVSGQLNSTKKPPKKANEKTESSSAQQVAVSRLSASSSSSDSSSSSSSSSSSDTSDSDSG
Sequence of CREB-binding protein (Homo sapiens) (Q92793 2-2442 limits assumed): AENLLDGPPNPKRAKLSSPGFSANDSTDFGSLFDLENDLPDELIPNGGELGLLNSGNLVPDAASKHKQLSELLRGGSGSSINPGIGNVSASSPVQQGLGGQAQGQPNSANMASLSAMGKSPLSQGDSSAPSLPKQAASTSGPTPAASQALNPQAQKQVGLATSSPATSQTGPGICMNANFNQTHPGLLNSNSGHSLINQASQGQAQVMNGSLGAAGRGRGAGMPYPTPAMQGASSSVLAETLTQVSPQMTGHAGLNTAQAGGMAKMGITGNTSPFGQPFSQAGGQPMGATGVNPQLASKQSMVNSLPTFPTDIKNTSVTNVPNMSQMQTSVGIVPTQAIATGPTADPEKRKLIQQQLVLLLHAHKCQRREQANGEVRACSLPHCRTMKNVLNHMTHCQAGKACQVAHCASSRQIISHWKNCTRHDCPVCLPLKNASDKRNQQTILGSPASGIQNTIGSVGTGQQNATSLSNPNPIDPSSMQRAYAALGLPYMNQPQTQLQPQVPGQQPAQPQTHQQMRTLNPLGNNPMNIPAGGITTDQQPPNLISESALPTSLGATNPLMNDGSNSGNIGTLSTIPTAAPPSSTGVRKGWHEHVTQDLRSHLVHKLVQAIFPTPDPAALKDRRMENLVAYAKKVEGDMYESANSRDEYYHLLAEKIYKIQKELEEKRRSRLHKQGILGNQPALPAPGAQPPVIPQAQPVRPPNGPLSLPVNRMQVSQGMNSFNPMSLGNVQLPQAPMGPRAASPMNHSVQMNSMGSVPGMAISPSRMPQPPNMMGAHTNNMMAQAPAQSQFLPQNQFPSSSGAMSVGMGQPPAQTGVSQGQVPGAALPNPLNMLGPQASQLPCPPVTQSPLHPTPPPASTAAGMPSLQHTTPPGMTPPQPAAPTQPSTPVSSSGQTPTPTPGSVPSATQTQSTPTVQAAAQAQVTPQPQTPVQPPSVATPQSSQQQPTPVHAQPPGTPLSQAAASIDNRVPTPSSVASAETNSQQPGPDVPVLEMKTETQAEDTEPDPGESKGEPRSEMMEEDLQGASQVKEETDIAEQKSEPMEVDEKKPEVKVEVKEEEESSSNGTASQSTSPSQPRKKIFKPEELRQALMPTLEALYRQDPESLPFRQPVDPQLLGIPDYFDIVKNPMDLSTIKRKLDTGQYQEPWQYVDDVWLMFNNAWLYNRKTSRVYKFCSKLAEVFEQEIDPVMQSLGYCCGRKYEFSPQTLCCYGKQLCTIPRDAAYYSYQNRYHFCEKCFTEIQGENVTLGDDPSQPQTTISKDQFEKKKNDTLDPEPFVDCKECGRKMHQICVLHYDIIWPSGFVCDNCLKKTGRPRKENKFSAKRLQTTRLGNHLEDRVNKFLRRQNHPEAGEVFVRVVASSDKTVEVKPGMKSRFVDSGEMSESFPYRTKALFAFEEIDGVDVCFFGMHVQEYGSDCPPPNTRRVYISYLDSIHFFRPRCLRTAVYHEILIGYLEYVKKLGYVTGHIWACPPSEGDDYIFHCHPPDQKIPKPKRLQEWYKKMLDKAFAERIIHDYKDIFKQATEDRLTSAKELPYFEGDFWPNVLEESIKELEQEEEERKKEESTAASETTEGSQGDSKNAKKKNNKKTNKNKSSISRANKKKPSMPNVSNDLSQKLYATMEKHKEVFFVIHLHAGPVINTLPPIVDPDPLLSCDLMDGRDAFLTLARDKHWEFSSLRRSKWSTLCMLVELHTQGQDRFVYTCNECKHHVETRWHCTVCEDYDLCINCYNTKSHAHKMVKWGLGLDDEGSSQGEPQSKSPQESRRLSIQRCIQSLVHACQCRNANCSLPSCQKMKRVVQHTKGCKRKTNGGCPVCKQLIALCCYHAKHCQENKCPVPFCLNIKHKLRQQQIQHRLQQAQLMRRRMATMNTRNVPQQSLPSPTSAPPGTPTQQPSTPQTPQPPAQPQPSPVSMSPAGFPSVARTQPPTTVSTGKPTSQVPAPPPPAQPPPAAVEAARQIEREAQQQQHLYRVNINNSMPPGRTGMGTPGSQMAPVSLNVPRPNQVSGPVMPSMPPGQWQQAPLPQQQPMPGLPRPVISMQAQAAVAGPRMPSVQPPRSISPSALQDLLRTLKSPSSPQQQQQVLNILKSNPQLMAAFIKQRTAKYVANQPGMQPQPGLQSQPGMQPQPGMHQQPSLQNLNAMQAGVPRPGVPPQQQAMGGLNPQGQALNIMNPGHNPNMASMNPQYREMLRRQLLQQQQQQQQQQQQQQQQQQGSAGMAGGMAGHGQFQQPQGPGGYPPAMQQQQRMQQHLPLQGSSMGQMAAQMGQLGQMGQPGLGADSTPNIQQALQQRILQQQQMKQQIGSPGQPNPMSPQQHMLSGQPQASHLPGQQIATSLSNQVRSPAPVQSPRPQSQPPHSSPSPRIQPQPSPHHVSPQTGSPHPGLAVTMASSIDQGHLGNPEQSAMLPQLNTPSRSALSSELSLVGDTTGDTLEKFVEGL
Sequence of SWI/SNF-related matrix-associated actin-dependent regulator of chromatin subfamily A member 2 (Homo sapiens) (P51531 whole entry, the tested form may be a part): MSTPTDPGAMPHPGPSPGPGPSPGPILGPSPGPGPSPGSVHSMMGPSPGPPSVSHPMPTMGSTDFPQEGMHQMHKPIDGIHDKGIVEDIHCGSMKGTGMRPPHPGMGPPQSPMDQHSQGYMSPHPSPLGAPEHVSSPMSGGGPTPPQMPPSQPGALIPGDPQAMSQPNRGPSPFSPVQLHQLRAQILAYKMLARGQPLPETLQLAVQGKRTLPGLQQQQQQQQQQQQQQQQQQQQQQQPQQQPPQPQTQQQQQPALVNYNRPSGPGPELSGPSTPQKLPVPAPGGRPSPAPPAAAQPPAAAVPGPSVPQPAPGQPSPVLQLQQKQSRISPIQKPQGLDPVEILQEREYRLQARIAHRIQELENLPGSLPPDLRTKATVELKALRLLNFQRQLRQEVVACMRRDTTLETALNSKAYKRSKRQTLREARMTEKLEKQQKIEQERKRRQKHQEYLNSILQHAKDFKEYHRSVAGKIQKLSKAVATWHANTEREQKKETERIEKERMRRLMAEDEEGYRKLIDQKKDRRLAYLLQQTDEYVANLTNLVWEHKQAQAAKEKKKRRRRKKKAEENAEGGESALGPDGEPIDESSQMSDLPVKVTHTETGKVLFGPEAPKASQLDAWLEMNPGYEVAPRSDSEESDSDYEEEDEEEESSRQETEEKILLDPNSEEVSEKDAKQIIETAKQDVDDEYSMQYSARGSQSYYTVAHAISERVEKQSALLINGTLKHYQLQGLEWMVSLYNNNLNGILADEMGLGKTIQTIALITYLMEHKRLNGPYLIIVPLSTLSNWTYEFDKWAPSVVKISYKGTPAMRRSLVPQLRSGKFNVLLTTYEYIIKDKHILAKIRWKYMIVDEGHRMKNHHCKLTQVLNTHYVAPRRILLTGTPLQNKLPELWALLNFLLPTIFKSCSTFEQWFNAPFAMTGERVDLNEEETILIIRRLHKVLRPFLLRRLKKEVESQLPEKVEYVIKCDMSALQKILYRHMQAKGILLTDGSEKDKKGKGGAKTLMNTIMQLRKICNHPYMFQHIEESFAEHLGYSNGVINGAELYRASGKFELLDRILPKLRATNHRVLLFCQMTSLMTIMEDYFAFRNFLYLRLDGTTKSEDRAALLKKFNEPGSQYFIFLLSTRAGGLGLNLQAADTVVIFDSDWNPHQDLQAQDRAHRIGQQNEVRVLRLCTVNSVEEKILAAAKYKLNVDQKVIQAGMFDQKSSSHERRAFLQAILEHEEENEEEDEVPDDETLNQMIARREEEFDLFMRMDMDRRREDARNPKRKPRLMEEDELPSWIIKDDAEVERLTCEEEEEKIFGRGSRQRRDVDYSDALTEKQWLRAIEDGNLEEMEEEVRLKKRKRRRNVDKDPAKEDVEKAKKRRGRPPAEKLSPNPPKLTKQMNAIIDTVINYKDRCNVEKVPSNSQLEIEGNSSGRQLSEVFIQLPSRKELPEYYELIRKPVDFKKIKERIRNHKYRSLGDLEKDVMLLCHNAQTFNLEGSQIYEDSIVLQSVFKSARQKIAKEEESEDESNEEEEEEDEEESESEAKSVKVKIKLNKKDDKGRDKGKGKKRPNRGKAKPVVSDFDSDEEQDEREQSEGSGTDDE

SMILES: CNc1cc(-c2ccc3c(ccn3CCN(C)C)c2)nc(S(C)(=O)=O)n1
IC50 [1]: 36.9 nM

SMILES: CCCCNc1cc(-c2ccc3c(ccn3CCCN(C)C)c2)nc(S(C)(=O)=O)n1
IC50 [1]: 114 nM

SMILES: CNc1cc(-c2ccc3ccn(CCCN(C)C)c3c2)nc(S(C)(=O)=O)n1
IC50 [1]: 2100 nM

SMILES: CCCNc1cc(-c2ccc3c(ccn3CCCN(C)C)c2)nc([S+](C)[O-])n1 (stereo not drawn)
IC50 [1]: 145 nM

SMILES: CCNc1cc(-c2ccc3c(ccn3CCCN(C)C)c2)nc(S(C)(=O)=O)n1
IC50 [1]: 28.8 nM

SMILES: CNc1cc(-c2ccc3c(ccn3CCCN(C)C)c2)nc(S(C)(=O)=O)n1
IC50 [1]: 32.7 nM

SMILES: CNc1cc(-c2cccc3ncccc23)nc(S(C)(=O)=O)n1
IC50 [1]: 1700 nM

SMILES: CCCNc1cc(-c2ccc3c(c2)c(C)cn3CCCN(C)C)nc(S(C)(=O)=O)n1
IC50 [1]: 58.6 nM

SMILES: Cc1cn(CCCN(C)C)c2ccc(-c3nc(S(C)(=O)=O)nc4[nH]ccc34)cc12
IC50 [1]: 157 nM

SMILES: CNc1cc(-c2ccccc2)nc(S(C)(=O)=O)n1
IC50 [1]: 7800 nM

SMILES: CCCNc1cc(-c2ccc3c(ccn3CCCN(C)C)c2)nc(S(C)(=O)=O)n1
ΔTm [8]: 8.9 °C | Kd [9]: 49600 nM | ΔTm [33]: 3.87 °C | IC50 [1]: 16 nM | ΔTm [30]: 7.97 °C | ΔTm [31]: 6.12 °C

SMILES: CN(C)CCCOc1ccc(-c2cc(NCCCn3cccn3)nc(S(C)(=O)=O)n2)cc1
Kd [32]: 120 nM | Kd [34]: 200 nM

The next lines start with results.

IC50 (MV4-11 [3]): 890 nM | inhibition [4]: inactive | inhibition [5]: Dose-Dependent Effect | Activity [6]: inactive | ΔTm [8]: 7.66 °C | Kd [9]: 20.7 nM | Activity [10]: inactive | EC50 [11]: 120 nM | inhibition [12]: inactive | inhibition [13]: inactive | inhibition [14]: inactive | inhibition [15]: Dose-Dependent Effect | inhibition [16]: Dose-Dependent Effect | Activity [17]: inactive | IC50 [1]: 26.9 nM | inhibition [19]: inactive | Activity [20]: Active | inhibition [21]: inactive | inhibition [22]: inactive | inhibition [24]: 100% | Activity [25]: inactive | Activity [26]: Active | Activity [27]: inactive | Activity [28]: inactive | Activity [29]: inactive | ΔTm [30]: 6.5 °C | ΔTm [31]: 5.02 °C
SMILES: CN(C)CCCn1ccc2cc(-c3nc(S(C)(=O)=O)nc4[nH]ccc34)ccc21
Activity (MV4-11 [2]): Dose-Dependent Effect | Activity (HUVEC): Non-Toxic | Activity (MV4-11 [7]): Dose-Dependent Effect | Activity (MRC5): Non-Toxic | Activity (MV4-11 [18]): Dose-Dependent Effect | Activity (MV4-11 [23]): Active

IC50 [1]: 14700 nM
SMILES: CN(C)CCCn1ccc2cc(-c3cc(N(C)C)nc(S(C)(=O)=O)n3)ccc21

Kd [32]: 71 nM
SMILES: Cc1c(Nc2ccc(S(=O)(=O)N3CCN(C)CC3)cc2F)nc2ccc(-c3cnn(C4CC4)c3)cn2c1=O

ΔTm [8]: 2.4 °C | Kd [9]: 2810 nM | ΔTm [33]: 1.22 °C | IC50 [1]: 698 nM | ΔTm [30]: 1.67 °C | ΔTm [31]: 1.29 °C
SMILES: CNc1cc(-c2ccc3[nH]ccc3c2)nc(S(C)(=O)=O)n1

IC50 [1]: 59.3 nM
SMILES: CNc1cc(-c2ccc3c(ccn3CCCN(C)C)c2)nc([S+](C)[O-])n1 (stereo not drawn)

Kd [32]: 17900 nM
SMILES: CCOc1c(I)cc(C(N)=O)cc1OC

IC50 [1]: 63.8 nM
SMILES: CCCNc1cc(-c2cc(OC)c3c(ccn3CCCN(C)C)c2)nc(S(C)(=O)=O)n1

IC50 [1]: 288 nM
SMILES: CCC(C)Nc1cc(-c2ccc3c(ccn3CCCN(C)C)c2)nc(S(C)(=O)=O)n1 (stereo not drawn)
